Measured values reported in PMC3611663 (American heart journal, 2011).
Read-outs that look alike come from different tables or passages of the source. Bridge positions count the residues as written; N and C are the ends. Square brackets hold non-standard residues; d marks the D form. Peptide text beside a SMILES is read from it. hArg = N=C(N)NCCCC[C@H](N)C(=O)O; Mpa = O=C(O)CCS

Experiments:
[1] = format: in vivo, human
GP IIb/IIIa receptor = settings: PRIDE study; cited from earlier work

N=C(N)NCCCC[C@@H]1NC(=O)CCSSC[C@@H](C(N)=O)NC(=O)[C@@H]2CCCN2C(=O)[C@H](Cc2c[nH]c3ccccc23)NC(=O)[C@H](CC(=O)O)NC(=O)CNC1=O [Eptifibatide] ([Mpa][hArg]GDWPC-NH2; disulfide 1-7 (inferred); C-terminus assumed)
Slope of plasma concentration versus body weight (ANCOVA regression) ([1]; ABW dosing): 20.6 | Patients with plasma Eptifibatide >1600 ng/mL ([1]; ABW-based dosing (N=22)): 14 (64) no. (%) | Patients with plasma Eptifibatide ≤1600 ng/mL ([1]; ABW-based dosing (N=22)): 8 (36) no. (%) | Slope of plasma concentration versus body weight (ANCOVA regression) ([1]; IBW dosing): 6.9 | Patients with plasma Eptifibatide >1600 ng/mL ([1]; IBW-based dosing (N=20)): 2 (10) no. (%) | Patients with plasma Eptifibatide ≤1600 ng/mL ([1]; IBW-based dosing (N=20)): 18 (90) no. (%) | Slope of plasma concentration versus body weight (ANCOVA regression) ([1]; standard dosing): −6.4 | Patients with plasma Eptifibatide >1600 ng/mL ([1]; standard dosing (N=19)): 10 (53) no. (%) | Patients with plasma Eptifibatide ≤1600 ng/mL ([1]; standard dosing (N=19)): 9 (47) no. (%) | Plasma concentration necessary to achieve >80% occupancy of the GP IIb/IIIa receptor (GP IIb/IIIa receptor): approximately 1600 ng/mL
